Test results: patent US11548893B2 (priority 2017, dated 2023)
Like-named read-outs stand apart in the source and are kept apart here.

What was measured:
[1] = tested on: MARV (full-length glycoprotein, VSV pseudotype); test: microbe, parasite or virus in culture; assay type: cell-based, Marburg marburgvirus; settings: for EC50: Vesicular stomatitis virus, Vero, 24 h, read-out: EC50 Pseudotype Assays MARV
[2] = tested on: SUDV (glycoprotein, VSV pseudotype); test: microbe, parasite or virus in culture; assay type: cell-based, Sudan ebolavirus; settings: Vesicular stomatitis virus, Vero, 24 h, read-out: EC50 Pseudotype Assays SUDV
in vitro = settings: African green monkey, Cytotox CC50
[3] = tested on: EBOV (mucin-deleted glycoprotein, VSV pseudotype); test: microbe, parasite or virus in culture; assay type: cell-based, Zaire ebolavirus; settings: read-out: EC50 Pseudotype Assays EBOV
[4] = tested on: EBOV_FL: full-length Ebola Zaire GP (VSV pseudotype); test: microbe, parasite or virus in culture; assay type: cell-based, Zaire ebolavirus; settings: Zaire ebolavirus, Vero, 24 h, read-out: EC50 Pseudotype Assays EBOV_FL
[5] = tested on: BDBV (mucin-deleted glycoprotein, VSV pseudotype); test: microbe, parasite or virus in culture; assay type: cell-based, Bundibugyo ebolavirus; settings: Vesicular stomatitis virus, Vero, 24 h, read-out: EC50 Pseudotype Assays BDBV

| Structure (SMILES) | EC50 [1] [nM] | EC50 [2] [nM] | CC50 (in vitro) [nM] | EC50 [3] [nM] | EC50 [4] [nM] | EC50 [5] [nM] | EC50 ([3]; Zaire ebolavirus, Vero, 24 h) [nM] | fold more potent against Marburgvirus infection compared to the opposite enantiomer [1] [fold] |
| --- | --- | --- | --- | --- | --- | --- | --- | --- |
| CCC12CC3CC(C(=O)N[C@@H]4CCNC[C@H]4F)(C1)CC(c1ccccc1)(C3)C2 (mixture of isomers) [Example A17] | 5910 | 255 | 6000 | 39 | 25 | 125 |  |  |
| CCC12CC3CC(C(=O)N[C@H]4CCNC[C@@H]4F)(C1)CC(c1ccccc1)(C3)C2 (mixture of isomers) [Example A19] | 3440 | 465 | 7300 |  | 40 | 261 | 23 |  |
| CCC12CC3CC(C(=O)NC4CCNCC4(C)C)(C1)CC(c1ccccc1)(C3)C2 (racemic) [Example A20] | 1570 | 330 | 5700 |  | 30 | 135 | 42 |  |
| CC12CC3CC(C(=O)NC4CC5CNC4C5)(C1)CC(c1ccccc1)(C3)C2 (racemic) [Example A30] | 5000 | 800 | 30000 |  |  | 700 | 250 |  |
| CC12CC3CC(C(=O)NC4CC5CC4CN5)(C1)CC(c1ccccc1)(C3)C2 (racemic) [Example A31] | > 1000 | > 1000 | 26000 |  |  | > 1000 | > 1000 |  |
| CC12CC3CC(C(=O)N4CCC(N)CC4)(C1)CC(c1ccccc1)(C3)C2 (racemic) [Example A33] |  | 300 | 13600 |  | 200 | 69 | 50 |  |
| CC12CC3CC(C(=O)N4CCC5(CCCN5)CC4)(C1)CC(c1ccccc1)(C3)C2 (racemic) [Example A38] |  | 130 | 6910 |  | 70 | 104 | 40 |  |
| CC12CC3CC(C(=O)N4CC5(CCNCC5)C4)(C1)CC(c1ccccc1)(C3)C2 (racemic) [Example A44] |  | 245 | 27200 |  |  | 75 | 45 |  |
| CC12CC3CC(C(=O)N4C[C@H]5CNC[C@H]5C4)(C1)CC(c1ccccc1)(C3)C2 (mixture of isomers) [Example A45] |  | 330 | 30600 |  |  | 301 | 205 |  |
| CC12CC3CC(C(=O)N4CCC(N)(CO)CC4)(C1)CC(c1ccccc1)(C3)C2 (racemic) [Example A46] |  | 90 | 12200 |  |  | 48 | 41 |  |
| CC12CC3CC(C(=O)N4CC5(CNC5)C4)(C1)CC(c1ccccc1)(C3)C2 (racemic) [Example A47] |  | 335 | 42300 |  |  | 238 | 65 |  |
| CC12CC3CC(C(=O)N4CC5(CCNC5)C4)(C1)CC(c1ccccc1)(C3)C2 (racemic) [Example A49] |  | 200 | 21900 |  | 190 | 109 | 23 |  |
| CC12CC3CC(C(=O)N4CCC5(CCNCC5)CC4)(C1)CC(c1ccccc1)(C3)C2 (racemic) [Example A50] |  | 160 | 8780 |  |  | 90 | 61 |  |
| CC12CC3CC(C(=O)N4CC[C@H](N)C4)(C1)CC(c1ccccc1)(C3)C2 (mixture of isomers) [Example A54] |  | 350 | 11300 |  |  | 200 | 120 |  |
| CC12CC3CC(C(=O)N4CC[C@@H](N)C4)(C1)CC(c1ccccc1)(C3)C2 (mixture of isomers) [Example A55] |  | 370 | 12600 |  |  | 160 | 140 |  |
| CC12CC3CC(C(=O)N4CCC[C@H](N)C4)(C1)CC(c1ccccc1)(C3)C2 (mixture of isomers) [Example A56] |  | 60 | 9090 |  |  | 75 | 107 |  |
| CC12CC3CC(C(=O)N4CCC[C@@H](N)C4)(C1)CC(c1ccccc1)(C3)C2 (mixture of isomers) [Example A57] |  | 220 | 7880 |  |  | 170 | 55 |  |
| CC12CC3CC(C(=O)N[C@@H]4CCCN5CCC[C@H]45)(C1)CC(c1ccccc1)(C3)C2 (mixture of isomers) [Example A59] |  | 400 | 12700 |  |  | 257 | 26 |  |
| CC12CC3CC(C(=O)NC45CCN(CC4)CC5)(C1)CC(c1ccccc1)(C3)C2 (racemic) [Example A60] |  | 330 | 23100 |  |  | 120 | 35 |  |
| CCC12CC3CC(CNC4CCNCC4(C)C)(C1)CC(c1ccccc1)(C3)C2 (stereo not shown) [Example A61] |  | 660 | 1240 |  |  | 750 | 800 |  |
| CCC12CC3CC(CNC4CCNCC4)(C1)CC(c1ccccc1)(C3)C2 (stereo not shown) [Example A62] |  | 540 | 1620 |  |  | 500 | 900 |  |

| Structure (SMILES) | EC50 [1] [nM] | EC50 [2] [nM] | CC50 (in vitro) [nM] | EC50 [3] [nM] | EC50 [4] [nM] | EC50 [5] [nM] | EC50 ([3]; Zaire ebolavirus, Vero, 24 h) [nM] | fold more potent against Marburgvirus infection compared to the opposite enantiomer [1] [fold] |
| --- | --- | --- | --- | --- | --- | --- | --- | --- |
| CCC12CC3CC(CN[C@H]4CCN[C@@H](C)C4)(C1)CC(c1ccccc1)(C3)C2 (stereo partly shown) [Example A63] |  | 740 | 1470 |  |  | 435 | 725 |  |
| CCC12CC3CC(CN[C@H]4CC[C@H](CN)CC4)(C1)CC(c1ccccc1)(C3)C2 (stereo partly shown) [Example A64] |  | 530 | 1240 |  |  | 300 | 610 |  |
| CC12CC3CC(CN[C@H]4CC[C@H](N)CC4)(C1)CC(c1ccccc1)(C3)C2 (stereo partly shown) [Example A65] | 890 | 180 | 1620 |  |  | 175 | 280 |  |
| CCC12CC3CC(CN[C@H]4CC[C@H](N)CC4)(C1)CC(c1ccccc1)(C3)C2 (stereo partly shown) [Example A66] | 970 | 490 | 4060 |  |  | 199 | 220 |  |
| NC1CCN(CC23CC4CC(C2)CC(c2ccccc2)(C4)C3)CC1 [Example A68] | > 3000 | 400 | 7470 |  |  | 280 | 600 |  |
| C[C@]12CC3CC(C(=O)N4CCC(N)C5(CC5)C4)(C1)C[C@@](c1ccccc1)(C3)C2 (stereo partly shown) [Example B9] |  | 75 | 8900 |  | 60 | 85 | 25 |  |
| C[C@]12CC3CC(C(=O)N4CCC5(CCCN5)CC4)(C1)C[C@@](c1ccccc1)(C3)C2 [Example B10] |  | 110 | 12300 |  | 50 | 71 | 45 |  |
| C[C@]12CC3CC(C(=O)N4CC5(CC(N)C5)C4)(C1)C[C@@](c1ccccc1)(C3)C2 [Example B11] |  | 260 | 23600 |  |  | 104 | 64 |  |
| CC1(C)CN(C(=O)C23CC4C[C@@](C)(C2)C[C@](c2ccccc2)(C4)C3)CC[C@H]1N [Example B12] |  | 200 | 13300 |  |  | 105 | 95 |  |
| C[C@@H]1C[C@H](NC(=O)C23CC4C[C@@](C)(C2)C[C@](c2ccccc2)(C4)C3)CCN1 [Example B14] |  | 730 | 14400 |  |  | 250 | 25 |  |
| CC[C@]12CC3CC(C(=O)N[C@H]4CC[C@H](N)CC4)(C1)C[C@@](c1ccccc1)(C3)C2 [Example B16] | 3020 | 180 |  |  |  | 57 | 16 |  |
| C[C@]12CC3CC(CN4CCC(N)CC4)(C1)C[C@@](c1ccccc1)(C3)C2 [Example B69] | 930 | 710 | 4670 |  |  | 279 | 429 |  |
| C[C@@]12CC3CC(C(=O)NC4CCNCC4)(C1)C[C@](c1ccccc1)(C3)C2 [Example C1] |  | 685 | 16300 |  |  | 186 | 238 |  |
| C[C@@]12CC3CC(C(=O)N[C@@H]4CCNC[C@H]4F)(C1)C[C@](c1ccccc1)(C3)C2 [Example C5] | > 3000 | 775 | 11600 |  |  | 109 | 169 |  |
| C[C@@]12CC3CC(C(=O)N[C@H]4CCNC[C@@H]4F)(C1)C[C@](c1ccccc1)(C3)C2 [Example C6] | 2980 | 480 | 12700 |  |  | 250 | 320 |  |
| CC1(C)CN(C(=O)C23CC4C[C@](C)(C2)C[C@@](c2ccccc2)(C4)C3)CCC1N (stereo partly shown) [Example C8] |  | 550 | 12400 |  |  | 123 | 97 |  |
| C[C@@]12CC3CC(C(=O)N4CCC5(CCCN5)CC4)(C1)C[C@](c1ccccc1)(C3)C2 [Example C10] |  | 155 | 12700 |  | 180 | 85 | 100 |  |
| CC[C@@]12CC3CC(C(=O)N[C@H]4CC[C@H](N)CC4)(C1)C[C@](c1ccccc1)(C3)C2 [Example C16] | 2970 | 940 |  |  |  | 388 | 353 |  |
| C[C@@]12CC3CC(C(=O)N[C@H]4CN5CCC4CC5)(C1)C[C@](c1ccccc1)(C3)C2 [Example C58] | 100 | 1010 | 10100 |  |  | 188 | 785 | 16 |
| C[C@@]12CC3CC(CN4CCC(N)CC4)(C1)C[C@](c1ccccc1)(C3)C2 [Example C69] | 1140 | 310 | 3800 |  |  | 208 | 313 |  |
